Laboratory results published in the NIST ThermoML archive (doi:10.1021/je050389b).

Test: xn = mol fraction of the nth substance listed
Settings: Liquid

CCOC(=O)Cc1ccccc1 [ethyl phenylacetate] + CCO
Settings	mass density, 288.15 K [kg/m3]	mass density, 298.15 K [kg/m3]	mass density, 308.15 K [kg/m3]	mass density, 318.15 K [kg/m3]	viscosity, 288.15 K [mPa·s]	viscosity, 298.15 K [mPa·s]	viscosity, 308.15 K [mPa·s]	viscosity, 318.15 K [mPa·s]
100.5 kPa, x1 = 0.05	–	–	–	–	1.366	1.127	0.947	0.798
100.5 kPa, x1 = 0.1	–	–	–	–	1.393	1.151	0.967	0.823
100.5 kPa, x1 = 0.15	–	–	–	–	1.447	1.195	1.003	0.855
100.5 kPa, x1 = 0.2	–	–	–	–	1.513	1.244	1.044	0.891
100.5 kPa, x1 = 0.25	–	–	–	–	1.584	1.298	1.089	0.93
100.5 kPa, x1 = 0.3	–	–	–	–	1.663	1.357	1.138	0.971
100.5 kPa, x1 = 0.35	–	–	–	–	1.742	1.418	1.188	1.012
100.5 kPa, x1 = 0.4	–	–	–	–	1.822	1.479	1.239	1.055
100.5 kPa, x1 = 0.45	–	–	–	–	1.904	1.543	1.292	1.099
100.5 kPa, x1 = 0.5	–	–	–	–	1.989	1.61	1.344	1.145
100.5 kPa, x1 = 0.55	–	–	–	–	2.076	1.677	1.399	1.191
100.5 kPa, x1 = 0.6	–	–	–	–	2.164	1.747	1.455	1.238
100.5 kPa, x1 = 0.65	–	–	–	–	2.255	1.821	1.513	1.286
100.5 kPa, x1 = 0.7	–	–	–	–	2.348	1.895	1.571	1.336
100.5 kPa, x1 = 0.75	–	–	–	–	2.446	1.974	1.635	1.387
100.5 kPa, x1 = 0.8	–	–	–	–	2.555	2.053	1.702	1.441
100.5 kPa, x1 = 0.85	–	–	–	–	2.672	2.14	1.772	1.498
100.5 kPa, x1 = 0.9	–	–	–	–	2.79	2.23	1.847	1.558
100.5 kPa, x1 = 0.95	–	–	–	–	2.919	2.33	1.914	1.605
100.5 kPa, x1 = 1	–	–	–	–	3.002	2.384	1.948	1.624
101 kPa, x1 = 0.05	825.34	816.54	807.65	798.61	–	–	–	–
101 kPa, x1 = 0.1	852	843.05	834	824.82	–	–	–	–
101 kPa, x1 = 0.15	874.72	865.65	856.49	847.17	–	–	–	–
101 kPa, x1 = 0.2	894.42	885.25	875.99	866.6	–	–	–	–
101 kPa, x1 = 0.25	911.6	902.37	893.03	883.57	–	–	–	–
101 kPa, x1 = 0.3	926.72	917.42	908.03	898.52	–	–	–	–
101 kPa, x1 = 0.35	940.14	930.79	921.36	911.82	–	–	–	–
101 kPa, x1 = 0.4	952.17	942.79	933.33	923.77	–	–	–	–
101 kPa, x1 = 0.45	963.02	953.61	944.13	934.56	–	–	–	–
101 kPa, x1 = 0.5	972.79	963.35	953.86	944.28	–	–	–	–
101 kPa, x1 = 0.55	981.67	972.24	962.73	953.16	–	–	–	–
101 kPa, x1 = 0.6	989.81	980.37	970.86	961.29	–	–	–	–
101 kPa, x1 = 0.65	997.27	987.81	978.31	968.75	–	–	–	–
101 kPa, x1 = 0.7	1004.13	994.68	985.19	975.65	–	–	–	–
101 kPa, x1 = 0.75	1010.49	1001.03	991.56	982.04	–	–	–	–
101 kPa, x1 = 0.8	1016.36	1006.93	997.48	987.98	–	–	–	–
101 kPa, x1 = 0.85	1021.84	1012.41	1002.97	993.53	–	–	–	–
101 kPa, x1 = 0.9	1026.95	1017.55	1008.14	998.73	–	–	–	–
101 kPa, x1 = 0.95	1031.75	1022.36	1012.99	1003.61	–	–	–	–
101 kPa, x1 = 1	1036.35	1026.96	1017.6	1008.26	–	–	–	–

CC(=O)OCCC(C)C [3-methylbutyl ethanoate] + CCO
100.5 kPa
Settings	mass density, 288.15 K [kg/m3]	mass density, 298.15 K [kg/m3]	mass density, 308.15 K [kg/m3]	mass density, 318.15 K [kg/m3]	viscosity, 288.15 K [mPa·s]	viscosity, 298.15 K [mPa·s]	viscosity, 308.15 K [mPa·s]	viscosity, 318.15 K [mPa·s]
x1 = 0.05	803.41	794.64	785.74	776.69	1.22	1.011	0.847	0.716
x1 = 0.1	811.89	802.92	793.84	784.6	1.133	0.946	0.799	0.68
x1 = 0.15	819.25	810.13	800.9	791.5	1.072	0.902	0.762	0.651
x1 = 0.2	825.81	816.58	807.21	797.69	1.031	0.866	0.735	0.63
x1 = 0.25	831.66	822.31	812.85	803.22	0.996	0.841	0.716	0.615
x1 = 0.3	836.85	827.42	817.86	808.15	0.968	0.821	0.701	0.605
x1 = 0.35	841.58	832.08	822.44	812.65	0.948	0.805	0.689	0.596
x1 = 0.4	845.81	836.24	826.53	816.69	0.934	0.793	0.68	0.59
x1 = 0.45	849.7	840.07	830.32	820.42	0.924	0.786	0.675	0.586
x1 = 0.5	853.26	843.59	833.79	823.86	0.916	0.779	0.671	0.583
x1 = 0.55	856.53	846.82	836.99	827.03	0.91	0.776	0.668	0.582
x1 = 0.6	859.57	849.83	839.97	829.99	0.907	0.773	0.667	0.582
x1 = 0.65	862.36	852.58	842.71	832.72	0.908	0.773	0.667	0.584
x1 = 0.7	865	855.21	845.33	835.33	0.911	0.775	0.67	0.588
x1 = 0.75	867.44	857.64	847.75	837.75	0.912	0.78	0.675	0.594
x1 = 0.8	869.73	859.93	850.04	840.05	0.916	0.782	0.68	0.601
x1 = 0.85	871.89	862.08	852.2	842.22	0.926	0.791	0.688	0.609
x1 = 0.9	873.95	864.14	854.28	844.34	0.937	0.799	0.697	0.618
x1 = 0.95	875.87	866.09	856.25	846.32	0.939	0.804	0.703	0.625
x1 = 1	877.72	867.91	858.07	848.17	0.94	0.804	0.704	0.627
